According to patent US6472348B1, “Pyridone derivatives and herbicides” (Kumiai Chemical Industry Co., Ltd., priority 1996, dated 2002):

Legend:
Type in all cases: in vivo
[1] = tested on: common lambsquarters (Ch); assay: Test Example 5: crop plant selectivity by upland field soil treatment (wheat), herbicidal effects; design: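 grade of growth control; 5 = at least 90%; 4 = 70 to 90%; 3 = 50 to 70%; 2 = 30 to 50%; 1 = 10 to 30%; 0 = under 10%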; conditions: dose 6.3 g ai/10a, 21st day after application
Method in brief: (§1)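 Pre-emergence soil treatment, sand-filled pots, seeds covered with soil; greenhouse culture; visual scoring of weed control and wheat injury at day 21 post-application.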

slender amaranth (Am) [2] = assay: as above; design: scale not given here; conditions: dose 6.3 g ai/10a, 21st day after application
Method in brief: as §1

pale smartweed (Po) [3] = assay: as above; design: scale not given here; conditions: dose 6.3 g ai/10a, 21st day after application
Method in brief: as §1

China jute (Ab) [4] = assay: as above; design: scale not given here; conditions: dose 6.3 g ai/10a, 21st day after application
Method in brief: as §1

green foxtail (Se) [5] = assay: as above; design: scale not given here; conditions: dose 6.3 g ai/10a, 21st day after application
Method in brief: as §1

[6] = tested on: common lambsquarters (Ch); assay: Test Example 7: crop plant selectivity by upland field soil treatment (corn), herbicidal effects; design: scale not given here; conditions: dose 6.3 g ai/10a, 21st day after application
Experimental: (§2) (Test on Crop Plant Selectivity by Upland Field Soil Treatment)
(§3) In a plastic pot (surface area: 600 cm^2) filled with sand, corn (Ze), green foxtail (Se), pale smartweed (Po), slender amaranth (Am), common lambsquarters (Ch) and China jute (Ab) were sown and covered with soil. […] The plants were then cultured in a green house, and the evaluation of the herbicidal effects and phytotoxicity was conducted on the 21st day after the application in accordance with the standards as identified in Table 47.

slender amaranth (Am) [7] = assay: as above; design: scale not given here; conditions: dose 6.3 g ai/10a, 21st day after application
Experimental: as §2, §3

pale smartweed (Po) [8] = assay: as above; design: scale not given here; conditions: dose 6.3 g ai/10a, 21st day after application
Experimental: as §2, §3

China jute (Ab) [9] = assay: as above; design: scale not given here; conditions: dose 6.3 g ai/10a, 21st day after application
Experimental: as §2, §3

green foxtail (Se) [10] = assay: as above; design: scale not given here; conditions: dose 6.3 g ai/10a, 21st day after application
Experimental: as §2, §3

soybean (Gl) = assay: Test Example 6: crop plant selectivity by upland field soil treatment (soybean), phytotoxicity; design: scale not given here; conditions: dose 6.3 g ai/10a, 21st day after application
Experimental: as §2
(§4) In a plastic pot (surface area: 600 cm^2) filled with sand, soybean (Gl), Diaitaria ciliaris (Di), green foxtail (Se), Johnsongrass (So), pale smartweed (Po), slender amaranth (Am), common lambsquarters (Ch) and China jute (Ab) were sown and covered with soil. […] The plants were then cultured in a green house, and the evaluation of the herbicidal effects and phytotoxicity was conducted on the 21st day after the application in accordance with the standards as identified in Table 47. Symbol—represents “not tested”.

cotton (Go) = assay: Test Example 4: crop plant selectivity by upland field soil treatment (cotton), phytotoxicity; design: scale not given here; conditions: dose 6.3 g ai/10 a, evaluated 21st day after application
Method in brief: (§5)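 Upland soil treatment: crop and weed seeds in sand pots under a soil cover, compound applied to soil, greenhouse-grown, rated visually 21 d later.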

monochoria (Mo) = assay: Test Example 1: herbicidal effects by paddy field soil treatment; conditions: 100 g of the active ingredient per 10 ares, 21st day after the application, index 0-5 of Table 47;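 also: grade of growth control; 5 = at least 90%; 4 = 70 to 90%; 3 = 50 to 70%; 2 = 30 to 50%; 1 = 10 to 30%; 0 = under 10%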
Method in brief: (§6)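 Greenhouse pot test in flooded paddy soil, dosed at 100 g a.i. per 10 ares; effect scored on day 21.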

bulrush (Sc) = assay: as above; conditions: 100 g of the active ingredient per 10 ares, 21st day after the application, index 0-5 of Table 47;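 also: grade of growth control; 5 = at least 90%; 4 = 70 to 90%; 3 = 50 to 70%; 2 = 30 to 50%; 1 = 10 to 30%; 0 = under 10%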
Method in brief: as §6

barnyardgrass (Ec) [11] = assay: as above; conditions: 100 g of the active ingredient per 10 ares, 21st day after the application, index 0-5 of Table 47
Method in brief: as §6

[12] = tested on: common lambsquarters (Ch); assay: Test Example 2: herbicidal effects by upland field soil treatment; conditions: 100 g of the active ingredient per 10 ares, evaluated on the 21st day after application;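 also: grade of growth control; 5 = at least 90%; 4 = 70 to 90%; 3 = 50 to 70%; 2 = 30 to 50%; 1 = 10 to 30%; 0 = under 10%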
Text: (§7) (Test on Herbicidal Effects by Upland Field Soil Treatment)

Digitaria ciliaris (Di) = assay: as above; conditions: 100 g of the active ingredient per 10 ares, evaluated on the 21st day after application;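 also: grade of growth control; 5 = at least 90%; 4 = 70 to 90%; 3 = 50 to 70%; 2 = 30 to 50%; 1 = 10 to 30%; 0 = under 10%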
Text: as §7

slender amaranth (Am) [13] = assay: as above; conditions: 100 g of the active ingredient per 10 ares, evaluated on the 21st day after application
Text: as §7

pale smartweed (Po) [14] = assay: as above; conditions: 100 g of the active ingredient per 10 ares, evaluated on the 21st day after application
Text: as §7

barnyardgrass (Ec) [15] = assay: as above; conditions: 100 g of the active ingredient per 10 ares, evaluated on the 21st day after application
Text: as §7

rice flatsedge (Ci) [16] = assay: as above; conditions: 100 g of the active ingredient per 10 ares, evaluated on the 21st day after application
Text: as §7

[17] = tested on: common lambsquarters (Ch); assay: Test Example 6: crop plant selectivity by upland field soil treatment (soybean), herbicidal effects; design: scale not given here; conditions: dose 6.3 g ai/10a, 21st day after application
Experimental: as §2, §4

slender amaranth (Am) [18] = assay: as above; design: scale not given here; conditions: dose 6.3 g ai/10a, 21st day after application
Experimental: as §2, §4

pale smartweed (Po) [19] = assay: as above; design: scale not given here; conditions: dose 6.3 g ai/10a, 21st day after application
Experimental: as §2, §4

China jute (Ab) [20] = assay: as above; design: scale not given here; conditions: dose 6.3 g ai/10a, 21st day after application
Experimental: as §2, §4

green foxtail (Se) [21] = assay: as above; design: scale not given here; conditions: dose 6.3 g ai/10a, 21st day after application
Experimental: as §2, §4

[22] = tested on: common lambsquarters (Ch); assay: Test Example 4: crop plant selectivity by upland field soil treatment (cotton), herbicidal effects; design: scale not given here; conditions: dose 6.3 g ai/10 a, evaluated 21st day after application
Method in brief: as §5

slender amaranth (Am) [23] = assay: as above; design: scale not given here; conditions: dose 6.3 g ai/10 a, evaluated 21st day after application
Method in brief: as §5

pale smartweed (Po) [24] = assay: as above; design: scale not given here; conditions: dose 6.3 g ai/10 a, evaluated 21st day after application
Method in brief: as §5

China jute (Ab) [25] = assay: as above; design: scale not given here; conditions: dose 6.3 g ai/10 a, evaluated 21st day after application
Method in brief: as §5

green foxtail (Se) [26] = assay: as above; design: scale not given here; conditions: dose 6.3 g ai/10 a, evaluated 21st day after application
Method in brief: as §5

corn (Ze) = assay: Test Example 7: crop plant selectivity by upland field soil treatment (corn), phytotoxicity; design: scale not given here; conditions: dose 6.3 g ai/10a, 21st day after application
Experimental: as §2, §3

wheat (Tr) = assay: Test Example 5: crop plant selectivity by upland field soil treatment (wheat), phytotoxicity; design: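 grade of crop injury; 5 = at least 90%; 4 = 70 to 90%; 3 = 50 to 70%; 2 = 30 to 50%; 1 = 10 to 30%; 0 = under 10%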; conditions: dose 6.3 g ai/10a, 21st day after application
Method in brief: as §1

[27] = tested on: common lambsquarters (Ch); assay: Test Example 3: herbicidal effects by upland field foliage treatment; design: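 grade of growth control; 5 = at least 90%; 4 = 70 to 90%; 3 = 50 to 70%; 2 = 30 to 50%; 1 = 10 to 30%; 0 = under 10%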; conditions: 100 g active ingredient per 10 ares, evaluated 14th day after treatment
Method in brief: (§8)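 Post-emergence upland foliage test. Seedlings grown 2 weeks under glass in pots (120 cm^2) of sand, seed topped with soil; treated on the foliage, kept in greenhouse, then assessed at day 14 using rating standards.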

slender amaranth (Am) [28] = assay: as above; design: scale not given here; conditions: 100 g active ingredient per 10 ares, evaluated 14th day after treatment
Method in brief: as §8

pale smartweed (Po) [29] = assay: as above; design: scale not given here; conditions: 100 g active ingredient per 10 ares, evaluated 14th day after treatment
Method in brief: as §8

barnyardgrass (Ec) [30] = assay: as above; design: scale not given here; conditions: 100 g active ingredient per 10 ares, evaluated 14th day after treatment
Method in brief: as §8

rice flatsedge (Ci) [31] = assay: as above; design: scale not given here; conditions: 100 g active ingredient per 10 ares, evaluated 14th day after treatment
Method in brief: as §8

Diaitaria ciliaris (Di) = assay: as above; design: scale not given here; conditions: 100 g active ingredient per 10 ares, evaluated 14th day after treatment
Method in brief: as §8

Structure (SMILES) | Herbicidal effects Ch [1] | Herbicidal effects Am (slender amaranth (Am) [2]) | Herbicidal effects Po (pale smartweed (Po) [3]) | Herbicidal effects Ab (China jute (Ab) [4]) | Herbicidal effects Se (green foxtail (Se) [5]) | Herbicidal effects Ch [6] | Herbicidal effects Am (slender amaranth (Am) [7]) | Herbicidal effects Po (pale smartweed (Po) [8]) | Herbicidal effects Ab (China jute (Ab) [9]) | Herbicidal effects Se (green foxtail (Se) [10]) | Phytotoxicity Gl (soybean (Gl)) | Phytotoxicity Go (cotton (Go)) | Herbicidal effects Mo (monochoria (Mo)) | Herbicidal effects Sc (bulrush (Sc)) | Herbicidal effects Ec (barnyardgrass (Ec) [11]) | Herbicidal effects Ch [12] | Herbicidal effects Di (Digitaria ciliaris (Di)) | Herbicidal effects Am (slender amaranth (Am) [13]) | Herbicidal effects Po (pale smartweed (Po) [14]) | Herbicidal effects Ec (barnyardgrass (Ec) [15]) | further results
CC(C)ON=Cc1cc(-c2ccc(C(F)(F)F)n(C)c2=O)c(F)cc1Cl [Compound 1-189] | 5 | 5 | 5 | 5 | 5 | 5 | 5 | 5 | 5 | 5 | 1 | 0 | 5 | 5 | 5 | 5 | 5 | 5 | 5 | 5 | Herbicidal effects Ci (rice flatsedge (Ci) [16]): 5; Herbicidal effects Ch [17]: 5; Herbicidal effects Am (slender amaranth (Am) [18]): 5; Herbicidal effects Po (pale smartweed (Po) [19]): 5; Herbicidal effects Ab (China jute (Ab) [20]): 5; Herbicidal effects Se (green foxtail (Se) [21]): 5; Herbicidal effects Ch [22]: 5; Herbicidal effects Am (slender amaranth (Am) [23]): 5; Herbicidal effects Po (pale smartweed (Po) [24]): 5; Herbicidal effects Ab (China jute (Ab) [25]): 5; Herbicidal effects Se (green foxtail (Se) [26]): 5; Phytotoxicity Ze (corn (Ze)): 1; Phytotoxicity Tr (wheat (Tr)): 1; Herbicidal effects Ch [27]: 5; Herbicidal effects Am (slender amaranth (Am) [28]): 5; Herbicidal effects Po (pale smartweed (Po) [29]): 5; Herbicidal effects Ec (barnyardgrass (Ec) [30]): 5; Herbicidal effects Ci (rice flatsedge (Ci) [31]): 5; Herbicidal effects Di (Diaitaria ciliaris (Di)): 5
CON=C(C)c1cc(-c2ccc(C(F)(F)F)n(C)c2=O)c(F)cc1Cl [Compound 1-192] | 5 | 5 | 5 | 5 | 5 | 5 | 5 | 5 | 5 | 5 | 1 | 0 | 5 | 5 | 5 | 5 | 5 | 5 | 5 | 5 | Herbicidal effects Ci (rice flatsedge (Ci) [16]): 5; Herbicidal effects Ch [17]: 5; Herbicidal effects Am (slender amaranth (Am) [18]): 5; Herbicidal effects Po (pale smartweed (Po) [19]): 5; Herbicidal effects Ab (China jute (Ab) [20]): 5; Herbicidal effects Se (green foxtail (Se) [21]): 5; Herbicidal effects Ch [22]: 5; Herbicidal effects Am (slender amaranth (Am) [23]): 5; Herbicidal effects Po (pale smartweed (Po) [24]): 5; Herbicidal effects Ab (China jute (Ab) [25]): 5; Herbicidal effects Se (green foxtail (Se) [26]): 5; Phytotoxicity Ze (corn (Ze)): 2; Phytotoxicity Tr (wheat (Tr)): 2; Herbicidal effects Ch [27]: 5; Herbicidal effects Am (slender amaranth (Am) [28]): 5; Herbicidal effects Po (pale smartweed (Po) [29]): 5; Herbicidal effects Ec (barnyardgrass (Ec) [30]): 5; Herbicidal effects Ci (rice flatsedge (Ci) [31]): 5; Herbicidal effects Di (Diaitaria ciliaris (Di)): 5
COc1cc(-c2ccc(C(F)(F)F)n(C)c2=O)c(Cl)cc1Cl [Compound 1-205] | 5 | 5 | 5 | 4 | 5 | 5 | 5 | 5 | 4 | 5 | 1 | 1 | 5 | 5 | 5 | 5 | 5 | 5 | 5 | 5 | Herbicidal effects Ci (rice flatsedge (Ci) [16]): 5; Herbicidal effects Ch [17]: 5; Herbicidal effects Am (slender amaranth (Am) [18]): 5; Herbicidal effects Po (pale smartweed (Po) [19]): 5; Herbicidal effects Ab (China jute (Ab) [20]): 4; Herbicidal effects Se (green foxtail (Se) [21]): 5; Herbicidal effects Ch [22]: 5; Herbicidal effects Am (slender amaranth (Am) [23]): 5; Herbicidal effects Po (pale smartweed (Po) [24]): 5; Herbicidal effects Ab (China jute (Ab) [25]): 4; Herbicidal effects Se (green foxtail (Se) [26]): 5; Phytotoxicity Ze (corn (Ze)): 2; Phytotoxicity Tr (wheat (Tr)): 1; Herbicidal effects Ch [27]: 5; Herbicidal effects Am (slender amaranth (Am) [28]): 5; Herbicidal effects Po (pale smartweed (Po) [29]): 5; Herbicidal effects Ec (barnyardgrass (Ec) [30]): 5; Herbicidal effects Ci (rice flatsedge (Ci) [31]): 5; Herbicidal effects Di (Diaitaria ciliaris (Di)): 5
